Numbered stars: 1 amine (or outer) side, 2 acyl side, 3 side chain; on linkers, the order of the positions; unused ones are H or OH. Square brackets hold non-standard residues; d marks the D form. Side chains are listed from the residue outwards. Peptide text beside a SMILES is read from it. * marks the point of attachment. Dap(Nα-HOOC(CH2)16CO)OH = O=C(O)CCCCCCCCCCCCCCCCC(=O)N[C@@H](CN*)C(=O)O; Bip = N[C@@H](Cc1ccc(-c2ccccc2)cc1)C(=O)O; C18 diacid = O=C(O)CCCCCCCCCCCCCCCCC(=O)*; X2 = O=C(CCc1ccc(I)cc1)N[C@@H](CN*)C(=O)O; αMePhe(2-F) = C[C@](N)(Cc1ccccc1F)C(=O)O; γGlu = O=C(O)[C@H](CCC(=O)[*:2])N[*:1]; hPhe = N[C@@H](CCc1ccccc1)C(=O)O; αMeP = C[C@@]1(C(=O)O)CCCN1; AEEA = NCCOCCOCC(=O)O; Aib = CC(C)(N)C(=O)O
biological target: T1, hGLP1 receptor (Homo sapiens, UniProt P43220); experiment: cAMP HTRF agonist assay in HEK cells co-expressing hGLP1 receptor and CRE-Luciferase; format: cell-based; conditions: cAMP EC50, nM (0.1% albumin), Table 6; 0.1% albumin
T1 construct: expressed in transfected cells; host or cells: HEK (human embryonic kidney) cells co-expressing hGLP1 receptor and CRE-Luciferase
T1 sequence (P43220 24-463): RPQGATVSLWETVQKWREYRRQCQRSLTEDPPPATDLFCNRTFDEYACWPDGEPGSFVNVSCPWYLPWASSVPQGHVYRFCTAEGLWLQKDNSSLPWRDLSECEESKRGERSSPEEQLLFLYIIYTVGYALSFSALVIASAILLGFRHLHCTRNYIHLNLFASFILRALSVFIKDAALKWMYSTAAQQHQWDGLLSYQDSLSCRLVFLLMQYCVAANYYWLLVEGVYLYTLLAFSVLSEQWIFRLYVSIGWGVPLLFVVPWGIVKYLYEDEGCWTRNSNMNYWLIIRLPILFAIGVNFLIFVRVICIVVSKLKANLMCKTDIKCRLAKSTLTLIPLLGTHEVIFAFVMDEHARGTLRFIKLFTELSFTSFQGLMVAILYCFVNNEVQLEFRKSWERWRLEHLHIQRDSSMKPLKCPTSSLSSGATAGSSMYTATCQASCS
How it was run: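 HEK cells co-expressing hGLP1R and CRE-luciferase, 1000 cells/well in DPBS with 500 μM IBMX, exposed to peptides or exendin-4 reference for 30 min; 11-point 1:3 series from top 1.0 μM. cAMP measured by HTRF (665/615 nm) after 1 h at room temperature; EC50 from 4-parameter logistic fit.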

Structure (SMILES)	EC50 [nM]
C[C@@H](O)[C@H](NC(=O)CNC(=O)[C@H](CCC(=O)O)NC(=O)C(C)(C)NC(=O)[C@@H](N)Cc1c[nH]cn1)C(=O)N[C@@](C)(Cc1ccccc1F)C(=O)N[C@H](C(=O)N[C@@H](CO)C(=O)N[C@@H](CC(=O)O)C(=O)N[C@@H](Cc1ccc(-c2ccccc2)cc1)C(=O)N[C@@H](CCc1ccccc1)C(=O)NCCOCCOCC(=O)NCCOCCOCC(=O)NC[C@H](NC(=O)CCCCCCCCCCCCCCCCC(=O)O)C(=O)O)[C@@H](C)O [4-36, H2N-His-Aib-Glu-Gly-Thr-α-MePhe(2-F)-Thr-Ser-Asp-Bip-Hph-C(O)NH-RY2] (H-H[Aib]EGT[αMePhe(2-F)]TSD[Bip][hPhe][AEEA][AEEA]-{Dap(Nα-HOOC(CH2)16CO)OH})	70.9
C[C@@H](O)[C@H](NC(=O)CNC(=O)[C@H](CCC(=O)O)NC(=O)C(C)(C)NC(=O)[C@@H](N)Cc1c[nH]cn1)C(=O)N[C@@](C)(Cc1ccccc1F)C(=O)N[C@H](C(=O)N[C@@H](CO)C(=O)N[C@@H](CC(=O)O)C(=O)N[C@@H](Cc1ccc(-c2ccccc2)cc1)C(=O)N[C@@H](Cc1ccc(-c2ccccc2)cc1)C(=O)N[C@@H](CCCCNC(=O)COCCOCCNC(=O)CC[C@H](NC(=O)CCCCCCCCCCCCCCCCC(=O)O)C(=O)O)C(N)=O)[C@@H](C)O [4-48, H2N-His-Aib-Glu-Gly-Thr-α-MePhe(2-F)-Thr-Ser-Asp-Bip-Bip-C(0)NH-RY10] (H-H[Aib]EGT[αMePhe(2-F)]TSD[Bip][Bip]K([AEEA-γGlu-C18 diacid])-NH2)	9.7
C[C@@H](O)[C@H](NC(=O)CNC(=O)[C@H](CCC(=O)O)NC(=O)C(C)(C)NC(=O)[C@@H](N)Cc1c[nH]cn1)C(=O)N[C@@](C)(Cc1ccccc1F)C(=O)N[C@H](C(=O)N[C@@H](CO)C(=O)N[C@@H](CC(=O)O)C(=O)N[C@@H](Cc1ccc(-c2ccccc2)cc1)C(=O)N[C@@H](Cc1ccc(-c2ccccc2)cc1)C(=O)N[C@@H](CCCCNC(=O)COCCOCCNC(=O)COCCOCCNC(=O)CC[C@H](NC(=O)CCCCCCCCCCCCCCCCC(=O)O)C(=O)O)C(N)=O)[C@@H](C)O [4-49, H2N-His-Aib-Glu-Gly-Thr-α-MePhe(2-F)-Thr-Ser-Asp-Bip-Bip-C(O)NH-RY11] (H-H[Aib]EGT[αMePhe(2-F)]TSD[Bip][Bip]K([AEEA-AEEA-γGlu-C18 diacid])-NH2)	5
C[C@@H](O)[C@H](NC(=O)CNC(=O)[C@H](CCC(=O)O)NC(=O)C(C)(C)NC(=O)[C@@H](N)Cc1c[nH]cn1)C(=O)N[C@@](C)(Cc1ccccc1F)C(=O)N[C@H](C(=O)N[C@@H](CO)C(=O)N[C@@H](CC(=O)O)C(=O)N[C@@H](Cc1ccc(-c2ccccc2)cc1)C(=O)N[C@@H](Cc1ccc(-c2ccccc2)cc1)C(=O)N[C@@H](CCCCNC(=O)COCCOCCNC(=O)COCCOCCNC(=O)COCCOCCNC(=O)CC[C@H](NC(=O)CCCCCCCCCCCCCCCCC(=O)O)C(=O)O)C(N)=O)[C@@H](C)O [4-50, H2N-His-Aib-Glu-Gly-Thr-α-MePhe(2-F)-Thr-Ser-Asp-Bip-Bip-C(O)NH-RY12] (H-H[Aib]EGT[αMePhe(2-F)]TSD[Bip][Bip]K([AEEA-AEEA-AEEA-γGlu-C18 diacid])-NH2)	12
C[C@@H](O)[C@H](NC(=O)CNC(=O)[C@H](CCC(=O)O)NC(=O)C(C)(C)NC(=O)[C@@H](N)Cc1c[nH]cn1)C(=O)N[C@@](C)(Cc1ccccc1F)C(=O)N[C@H](C(=O)N[C@@H](CO)C(=O)N[C@@H](CC(=O)O)C(=O)N[C@@H](Cc1ccc(-c2ccccc2)cc1)C(=O)N[C@@H](Cc1ccc(-c2ccccc2)cc1)C(=O)NCCOCCOCC(=O)NCCOCCOCC(=O)NCCOCCOCC(=O)N[C@@H](CCCCN)C(N)=O)[C@@H](C)O [4-57, H2N-His-Aib-Glu-Gly-Thr-α-MePhe(2-F)-Thr-Ser-Asp-Bip-Bip-C(O)NH-RY13] (H-H[Aib]EGT[αMePhe(2-F)]TSD[Bip][Bip][AEEA][AEEA][AEEA]K-NH2)	14
C[C@@H](O)[C@H](NC(=O)CNC(=O)[C@H](CCC(=O)O)NC(=O)C(C)(C)NC(=O)[C@@H](N)Cc1c[nH]cn1)C(=O)N[C@@](C)(Cc1ccccc1F)C(=O)N[C@H](C(=O)N[C@@H](CO)C(=O)N[C@@H](CC(=O)O)C(=O)N[C@@H](Cc1ccc(-c2ccccc2)cc1)C(=O)N[C@@H](Cc1ccc(-c2ccccc2)cc1)C(=O)NCC(=O)NCC(=O)NCC(=O)N[C@@H](CCCCN)C(N)=O)[C@@H](C)O [4-58, H2N-His-Aib-Glu-Gly-Thr-α-MePhe(2-F)-Thr-Ser-Asp-Bip-Bip-C(O)NH-RY14] (H-H[Aib]EGT[αMePhe(2-F)]TSD[Bip][Bip]GGGK-NH2)	7.7
C[C@@H](O)[C@H](NC(=O)CNC(=O)[C@H](CCC(=O)O)NC(=O)[C@]1(C)CCCN1C(=O)[C@@H](N)Cc1c[nH]cn1)C(=O)N[C@@](C)(Cc1ccccc1F)C(=O)N[C@H](C(=O)N[C@@H](CO)C(=O)N[C@@H](CC(=O)O)C(=O)N[C@@H](Cc1ccc(-c2ccccc2)cc1)C(=O)N[C@@H](Cc1ccc(-c2ccccc2)cc1)C(=O)NCCOCCOCC(=O)NCCOCCOCC(=O)NCCOCCOCC(=O)NC[C@H](NC(=O)CCc1ccc(I)cc1)C(=O)O)[C@@H](C)O [4-59, H2N-His-α-MePro -Glu-Gly-Thr-α-MePhe(2-F)-Thr-Ser-Asp-Bip-Bip-C(O)NH-RY15] (H-H[αMeP]EGT[αMePhe(2-F)]TSD[Bip][Bip][AEEA][AEEA][AEEA]-X2)	1.3
C[C@@H](O)[C@H](NC(=O)CNC(=O)[C@H](CCC(=O)O)NC(=O)[C@]1(C)CCCN1C(=O)[C@@H](N)Cc1c[nH]cn1)C(=O)N[C@@](C)(Cc1ccccc1F)C(=O)N[C@H](C(=O)N[C@@H](CO)C(=O)N[C@@H](CC(=O)O)C(=O)N[C@@H](Cc1ccc(-c2ccccc2)cc1)C(=O)N[C@@H](Cc1ccc(-c2ccccc2)cc1)C(=O)NCCOCCOCC(=O)NCCOCCOCC(=O)NC[C@H](NC(=O)CCCCCCCCCCCCCCCCC(=O)O)C(=O)O)[C@@H](C)O [4-60, H2N-His-α-MePro-Glu-Gly-Thr-α-MePhe(2-F)-Thr-Ser-Asp-Bip-Bip-C(O)NH-RY16] (H-H[αMeP]EGT[αMePhe(2-F)]TSD[Bip][Bip][AEEA][AEEA]-{Dap(Nα-HOOC(CH2)16CO)OH})	2.2
C[C@@H](O)[C@H](NC(=O)CNC(=O)[C@H](CCC(=O)O)NC(=O)[C@]1(C)CCCN1C(=O)[C@@H](N)Cc1c[nH]cn1)C(=O)N[C@@](C)(Cc1ccccc1F)C(=O)N[C@H](C(=O)N[C@@H](CO)C(=O)N[C@@H](CC(=O)O)C(=O)N[C@@H](Cc1ccc(-c2ccccc2)cc1)C(=O)N[C@@H](Cc1ccc(-c2ccccc2)cc1)C(=O)N[C@@H](CCCCNC(=O)COCCOCCNC(=O)COCCOCCNC(=O)CC[C@H](NC(=O)CCCCCCCCCCCCCCCCC(=O)O)C(=O)O)C(N)=O)[C@@H](C)O [4-61, H2N-His-α-MePro-Glu-Gly-Thr-α-MePhe(2-F)-Thr-Ser-Asp-Bip-Bip-C(O)NH-RY17] (H-H[αMeP]EGT[αMePhe(2-F)]TSD[Bip][Bip]K([AEEA-AEEA-γGlu-C18 diacid])-NH2)	272

same assay, conditions: relative to parent 1-4

Structure (SMILES)	fold lower potency than the parent peptide (1-4)
C[C@@H](O)[C@H](NC(=O)CNC(=O)[C@H](CCC(=O)O)NC(=O)C(C)(C)NC(=O)[C@@H](N)Cc1c[nH]cn1)C(=O)N[C@@](C)(Cc1ccccc1F)C(=O)N[C@H](C(=O)N[C@@H](CO)C(=O)N[C@@H](CC(=O)O)C(=O)N[C@@H](Cc1ccc(-c2ccccc2)cc1)C(=O)N[C@@H](CCc1ccccc1)C(=O)NCCOCCOCC(=O)NCCOCCOCC(=O)NC[C@H](NC(=O)CCCCCCCCCCCCCCCCC(=O)O)C(=O)O)[C@@H](C)O [4-36, H2N-His-Aib-Glu-Gly-Thr-α-MePhe(2-F)-Thr-Ser-Asp-Bip-Hph-C(O)NH-RY2] (H-H[Aib]EGT[αMePhe(2-F)]TSD[Bip][hPhe][AEEA][AEEA]-{Dap(Nα-HOOC(CH2)16CO)OH})	15 fold
C[C@@H](O)[C@H](NC(=O)CNC(=O)[C@H](CCC(=O)O)NC(=O)C(C)(C)NC(=O)[C@@H](N)Cc1c[nH]cn1)C(=O)N[C@@](C)(Cc1ccccc1F)C(=O)N[C@H](C(=O)N[C@@H](CO)C(=O)N[C@@H](CC(=O)O)C(=O)N[C@@H](Cc1ccc(-c2ccccc2)cc1)C(=O)N[C@@H](CCc1ccccc1)C(=O)NCCOCCOCC(=O)NCCOCCOCC(=O)NCCOCCOCC(=O)NC[C@H](NC(=O)CCc1ccc(I)cc1)C(=O)O)[C@@H](C)O [4-37, H2N-His-Aib-Glu-Gly-Thr-α-MePhe(2-F)-Thr-Ser-Asp-Bip-Hph-C(O)NH-RY3] (H-H[Aib]EGT[αMePhe(2-F)]TSD[Bip][hPhe][AEEA][AEEA][AEEA]-X2)	equipotency

— patent US20230015478A1, “GLP-1 RECEPTOR AGONISTS HAVING IMPROVED PHARMACOLOGICAL AND DRUG DELIVERY PROPERTIES” (priority 2021, published 2023)
